Results on 81 compounds are retold here after the METLIN SMRT retention time set (Domingo-Almenara et al. 2019).

The data set is described as follows: gradient 5% acetonitrile 3 min, to 50% in 2 min, to 85% in 15 min, held 3 min, 100 µL/min. The following applies: column: Zorbax Extend-C18 2.1 x 50 mm; eluents: water / acetonitrile, 0.1% formic acid. The procedure, abridged: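 Values are retention times taken from adduct peaks that software picked and an analyst inspected. The pure standards were run as mixtures of ~100 molecules on HPLC linked to a quadrupole time-of-flight mass spectrometer, in positive and negative ionization mode. A Zorbax Extend-C18 column (2.1 × 50 mm, 1.8 μm) was used at 100 μL/min with water and acetonitrile, each including 0.1% formic acid.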
In the case of `COc1ccc2cc(C(=O)N3CCN(c4cc(=O)n(C(C)C)c(=O)n4C(C)C)CC3)[nH]c2c1`, the RP-LC retention time worked out at 909 s.
The same measure for `CC(=O)COc1cc(O)c2c(=O)cc(-c3ccccc3)oc2c1`: 938 s.
`CC(=O)Nc1nc(-c2ccc3c(c2)NC(=O)C(C)O3)c(C)s1` (stereo unspecified) returned an RP-LC retention time of 701 s.
For the compound `CCn1nccc1-c1cccc(-c2noc(-c3ccc(C)c(C)c3)n2)c1`, the RP-LC retention time is 1420 s.
`CC(=O)N1CCN(c2ncc(C(=O)Nc3ccccc3)c(N)n2)CC1`: the RP-LC retention time worked out at 607 s.
`Cn1cc(-c2cc3n(n2)CCC(=O)N3CCCC(=O)N2CCN(c3ccccn3)CC2)c2ccccc21`: the RP-LC retention time was found to be 619 s.
`O=C(c1c(F)cccc1F)N1CCN=C1N1CCN(c2ccccc2F)CC1` yielded an RP-LC retention time of 720 s.
In turn, `Cc1cc(C)n(Cc2nc(-c3ccc(NC(=O)Cc4ccccc4C)cc3)oc2C)n1` registered an RP-LC retention time of 978 s.
Next, `COc1ccc2oc(-c3noc(CNC(C)=O)n3)c(C)c2c1`: 750 s.
Next, `O=C(C1CCCN1)N1CCC(OCc2nc(-c3ccncc3)no2)CC1` (stereo unspecified): 565 s; `COc1cccc(/C=C/C(=O)N2CCC(c3cc(N)on3)CC2)c1`: 716 s; `O=C(NC1CCN(c2cc(-c3ccc(Cl)cc3)[nH]n2)C1)c1ccncc1` (stereo unspecified): 643 s.
As to `CCn1nc2c(S(=O)(=O)N3CCN(c4ccc(F)cc4)CC3)cccn2c1=O`, the RP-LC retention time was 1250 s.
`COc1ccc2[nH]c(C(=O)N3CC(n4cc(COCC5CC5)nn4)C3)cc2c1` gave an RP-LC retention time of 742 s.
For the compound `COC(=O)c1sccc1NC(=O)N1CCCn2nc(-c3cccc(Cl)c3)cc2C1`, the RP-LC retention time came out at 972 s.
The compound `Cc1cc(NC(=O)N2CCC(n3cnnc3C3CC3)C2)ccc1Br` (stereo unspecified) displayed an RP-LC retention time of 692 s.
`O=C(NCCc1c[nH]c2ccc(Cl)cc12)c1cc(-c2cccnc2)nc2ccccc12` displayed an RP-LC retention time of 805 s.
Regarding `Cc1ccc2cc(CN3CCC4(CC3)CC(O)CCO4)c(=O)[nH]c2c1` (stereo unspecified), the RP-LC retention time was 562 s.
Consider `O=C(Cc1ccsc1)N1CCN(c2ncnc3c2CCC3)CC1`, for which the RP-LC retention time was found to be 594 s.
The same measure for `Cc1cc(C)n(CCC(=O)N2CCCn3ccnc3C2C2CCCC2)n1` (stereo unspecified): 604 s; for `CSc1ccc2c(c1)C(N1CCN(C)CC1)Cc1ccccc1S2` (stereo unspecified): 869 s.
`Cc1ccccc1-c1nc(Cn2ccnc2)no1` displayed an RP-LC retention time of 609 s.
The compound `Cc1ccc2c(c1)C(=O)NC1(CCN(C(=O)Cc3ccccc3Cl)CC1)N2C` registered an RP-LC retention time of 841 s.
`CN(C)c1ccc(C(=O)N2CCCC2COc2ccc(C(=O)N3CCCC3)cc2)cc1` (stereo unspecified): the RP-LC retention time stood at 748 s.
In the case of `O=C(NCc1ccccc1F)c1ccc(NC(=O)C2CCC2)cc1N1CCOCC1`, the RP-LC retention time was found to be 853 s.
For the compound `COc1ccc(Nc2c(-c3nc(C)no3)cnc3nc(C)ccc23)c(OC)c1`, the RP-LC retention time is 692 s.
Regarding `Cc1ccc2[nH]c(=O)c(CCC(=O)N(C)Cc3cn(C)nc3C)cc2c1`, the RP-LC retention time stood at 646 s.
For the compound `CCCC(=O)Nc1ccc(OCc2cc(C(=O)NC3CCCC3)no2)cc1`, the RP-LC retention time stood at 854 s.
Compound `Cc1cc(OCC(=O)NCc2ccc(Cl)cc2)nc(N2CCCC2)n1` yielded an RP-LC retention time of 645 s.
On to `Cc1cc(C(=O)N2CCOCC2)n(CC(=O)NCc2ccco2)n1`, for which the RP-LC retention time came out at 576 s.
As to `CC(C)Cn1ccc2c(cc(C(=O)Nc3cc(F)ccc3F)n2C)c1=O`, the RP-LC retention time worked out at 876 s.
In turn, `CCC(=O)N1CCc2cc(N3CC(C(=O)NCc4ccccc4Cl)CC3=O)ccc21` (stereo unspecified) registered an RP-LC retention time of 744 s.
Regarding `COc1ccc(C)cc1NC(=O)Cn1c(=O)cc(-c2nc(C3CC3)no2)c2ccccc21`, the RP-LC retention time came to 1050 s.
`Cc1ccc(NC(=O)Cn2nc3c(Oc4ccccc4C)nccn3c2=O)cc1` came in with an RP-LC retention time of 853 s.
On to `O=C(Nc1ccc2c(c1)C(=O)N1CCCCC1CCO2)Nc1ccccc1C(F)(F)F` (stereo unspecified), for which the RP-LC retention time came out at 832 s.
Consider `CCCN1C(=O)c2ccccc2C(C(=O)NC2CC2)C1c1cc(OC)c(OC)c(OC)c1` (stereo unspecified), for which the RP-LC retention time was 696 s.
The same measure for `COc1ccc(OCc2nc(-c3ccc4oc(C)nc4c3)no2)cc1`: 984 s; for `CCCOc1ccc(C2NC(=O)NC(C)=C2C(=O)OCC(F)(F)F)cc1OC` (stereo unspecified): 808 s; for `O=c1n(Cc2cccc(C(F)(F)F)c2)nc2ccc(S(=O)(=O)N3CCCCC3)cn12`: 1030 s.
Compound `O=C(c1ccco1)N1CCC(OCc2nc(C3CC3)no2)CC1` returned an RP-LC retention time of 732 s.
Regarding `COc1cc(C(=O)Nc2cnn(C)c(=O)c2N2CCCCC2)cc(OC)c1OC`, the RP-LC retention time is 878 s.
Take `CCOC(=O)C1CCN(C(=O)CCn2c(=O)oc3ccccc32)CC1`: the RP-LC retention time is 708 s.
`O=C(CN1CCN(Cc2ccccc2)C1=O)NCc1ccccc1Br`: the RP-LC retention time amounted to 824 s.
On to `CSc1cccc(NC(=O)N2CCN(C3=CC4=NCC(C)N4C=N3)CC2)c1` (stereo unspecified), for which the RP-LC retention time amounted to 650 s.
Consider `CN=C(NC#N)NCCSCc1csc(N=C(N)N)n1`, for which the RP-LC retention time is 616 s.
In turn, `COc1ccc(-c2nnc(-c3ccc(-n4ccnc4)nc3)o2)cc1F` displayed an RP-LC retention time of 642 s.
Regarding `CCN(CC)CCNC(=O)Cn1ncc2c3ccccc3n(C)c2c1=O`, the RP-LC retention time worked out at 697 s.
Take `Cc1sc(-c2nc(C(C)C)cs2)cc1S(=O)(=O)NCc1ccccc1`: the RP-LC retention time turned out to be 1190 s.
In turn, `CN(Cc1ccccc1)C(=O)CN1C(=O)C2CCCCN2c2ccc(S(=O)(=O)N(C)C)cc21` (stereo unspecified) came in with an RP-LC retention time of 939 s.
Take `COc1ccc(S(=O)(=O)N2CCc3nc(-c4ccccc4)ncc3C2)cc1Cl`: the RP-LC retention time was found to be 1090 s.
As to `CCc1cccc(C)c1Nc1c(-c2ccc(SC)cc2)nc2nc(C)cc(C)n12`, the RP-LC retention time came to 867 s.
Turning to `O=C(NCc1ccccc1Cl)c1c(O)c2cccnc2n(-c2cccc(F)c2)c1=O`, the RP-LC retention time was found to be 1230 s.
`Cn1c(=O)n(-c2ccc(F)cc2)c2nc(-c3ccccc3Cl)nc(C(N)=O)c21` showed an RP-LC retention time of 912 s.
The same measure for `O=C(CSc1cc(N2CCCCC2)ncn1)Nc1cccc(Br)c1`: 1050 s; for `CC1Cn2cc(C(=O)NCCN3CCN(C)CC3)c(=O)c3c(Cl)ccc(c32)O1` (stereo unspecified): 590 s.
As to `CCCC(=O)NCc1c(-c2ccccc2)nc2n1CCS2`, the RP-LC retention time amounted to 604 s.
The compound `COc1cccc(CNC(=O)Cn2cnc3onc(C)c3c2=O)c1` yielded an RP-LC retention time of 708 s.
The same measure for `OC[C@@H]1CN(Cc2ccncc2F)C[C@H]1c1nc(-c2cccnc2)no1`: 560 s; for `O=C(Nc1cccc(C(=O)NCCC2=CCCCC2)c1)C1=CSCCO1`: 925 s; for `CSc1ccc(-c2nc3cnccn3c2Nc2cccc(C(F)(F)F)c2)cc1`: 1020 s.
Regarding `CN(C)c1ccc(NC(=O)Cn2nc3c(Oc4ccccc4Cl)nccn3c2=O)cc1`, the RP-LC retention time was determined as 676 s.
The same measure for `CCN(CC)S(=O)(=O)c1c[nH]c(=O)[nH]c1=O`: 563 s; for `Cc1cc(C2CCCN2C(=O)Nc2cccc(C)c2C)no1` (stereo unspecified): 774 s; for `CS(=O)(=O)N1CCC(CNC(=O)CCSc2ccccc2)CC1`: 692 s.
Consider `COc1cc(OC)c(NC(=O)Nc2c(-c3ccc(C)cc3)nc3ccccn23)cc1Cl`, for which the RP-LC retention time stood at 721 s.
`COc1cccc(C(=O)N2CCCn3nc(-c4cccs4)cc3C2)c1OC` showed an RP-LC retention time of 798 s.
For `CCN1C(=O)COc2ccc(-c3noc(-c4cccc5[nH]ccc45)n3)cc21`, the RP-LC retention time stood at 998 s.
With `Cc1ccc(-c2cn3c(CC(=O)NCc4ccccc4C)csc3n2)cc1C`, the RP-LC retention time came to 859 s.
`Cc1ccc(CNC(=O)c2ccc(=O)n(CCN3CCCC3)c2)cc1` gave an RP-LC retention time of 614 s.
In turn, `CN(C)C1(CC2CC2)CCN(C(=O)c2ccsc2)CC1` displayed an RP-LC retention time of 578 s.
Consider `Cn1nc(C(=O)Nc2cccnc2)ccc1=O`, for which the RP-LC retention time worked out at 493 s.
As to `Cc1ccc(NC(=O)C2CCN(S(=O)(=O)c3ccc4c(c3)CCCC(=O)N4)CC2)cc1N(C)C`, the RP-LC retention time was 698 s.
The compound `CCOc1ccc(NC(=O)Cn2c(=O)nc(N3CCCC(C)C3)c3ccccc32)cc1` (stereo unspecified) showed an RP-LC retention time of 845 s.
On to `Cc1c(Cl)cccc1NC1=NS(=O)(=O)c2ccccc21`, for which the RP-LC retention time was determined as 813 s.
Next, `O=C(Nc1ccc(F)cc1Cl)c1cnc(-c2ccc(F)cc2)nc1-c1ccncc1`: 951 s.
In turn, `CCCC(C)C(=O)NCCc1nc2cccnc2n1C` (stereo unspecified) returned an RP-LC retention time of 593 s.
`Cc1ccc(-n2nc3c(=O)n(CCCC(=O)NCCCN4CCCC4=O)nc(C)c3c2C)cc1` displayed an RP-LC retention time of 683 s.
On to `CN(CC1CCOCC1)C(=O)Nc1ccccc1Cl`, for which the RP-LC retention time is 763 s.
Take `Cc1ccc(F)c(NS(=O)(=O)c2cn(C(C)C)c3ncccc23)c1`: the RP-LC retention time is 912 s.
Regarding `COc1ccc(-c2nnc3sc(-c4cc(C)on4)nn23)cc1`, the RP-LC retention time is 864 s.
`CS(=O)(=O)c1ccccc1C(=O)Nc1ccc2sccc2c1` had an RP-LC retention time of 757 s.
